Values of other authors in article PMC2981028 (Cancer research, 2010).

Legend:
insulin receptor (IR) = insulin receptor (IR) (Homo sapiens, UniProt P06213); assay: inhibition of IR phosphorylation in vitro; type: cell-based
[1] = biological target: type 1 insulin-like growth factor receptor (IGF-1R) (Homo sapiens, UniProt P08069); assay: inhibition of IGF-1R phosphorylation in vitro; type: cell-based
type 1 insulin-like growth factor receptor (IGF-1R), sequence (P08069 31-736): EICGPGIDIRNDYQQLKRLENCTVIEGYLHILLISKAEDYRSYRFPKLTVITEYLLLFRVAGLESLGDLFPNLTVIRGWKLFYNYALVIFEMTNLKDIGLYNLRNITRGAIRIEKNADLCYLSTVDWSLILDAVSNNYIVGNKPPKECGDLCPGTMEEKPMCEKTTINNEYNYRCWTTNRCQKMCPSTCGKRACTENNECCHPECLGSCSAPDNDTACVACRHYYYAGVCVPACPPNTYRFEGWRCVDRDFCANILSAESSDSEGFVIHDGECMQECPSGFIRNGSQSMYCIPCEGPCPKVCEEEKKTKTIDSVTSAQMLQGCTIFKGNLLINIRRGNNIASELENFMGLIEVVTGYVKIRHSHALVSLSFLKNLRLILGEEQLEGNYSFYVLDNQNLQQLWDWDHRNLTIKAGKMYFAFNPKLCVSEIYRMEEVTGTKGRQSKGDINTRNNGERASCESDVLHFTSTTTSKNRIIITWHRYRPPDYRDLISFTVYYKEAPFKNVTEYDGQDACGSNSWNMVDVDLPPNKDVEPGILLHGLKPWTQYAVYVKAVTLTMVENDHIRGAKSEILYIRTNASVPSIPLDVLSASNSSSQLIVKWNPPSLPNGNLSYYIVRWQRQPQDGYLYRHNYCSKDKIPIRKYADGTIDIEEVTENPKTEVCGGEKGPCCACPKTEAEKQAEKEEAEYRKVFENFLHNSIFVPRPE
type 1 insulin-like growth factor receptor (IGF-1R), sequence (P08069 741-1367): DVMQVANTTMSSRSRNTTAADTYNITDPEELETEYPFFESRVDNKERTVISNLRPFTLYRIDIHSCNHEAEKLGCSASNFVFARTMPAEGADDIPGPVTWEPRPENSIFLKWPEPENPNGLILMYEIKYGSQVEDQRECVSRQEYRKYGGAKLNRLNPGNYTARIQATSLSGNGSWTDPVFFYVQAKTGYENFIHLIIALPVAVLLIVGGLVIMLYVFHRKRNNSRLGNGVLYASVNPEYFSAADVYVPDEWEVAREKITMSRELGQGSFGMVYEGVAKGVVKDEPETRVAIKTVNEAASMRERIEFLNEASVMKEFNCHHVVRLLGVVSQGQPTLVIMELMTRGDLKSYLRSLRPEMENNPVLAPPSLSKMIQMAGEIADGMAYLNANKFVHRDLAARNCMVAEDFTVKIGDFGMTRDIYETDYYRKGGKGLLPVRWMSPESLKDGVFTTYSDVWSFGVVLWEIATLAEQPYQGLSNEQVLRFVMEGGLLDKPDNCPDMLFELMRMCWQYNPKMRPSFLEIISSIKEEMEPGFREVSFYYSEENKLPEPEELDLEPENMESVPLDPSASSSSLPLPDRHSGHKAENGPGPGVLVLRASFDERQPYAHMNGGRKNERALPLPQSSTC

insulin receptor (IR), sequence (P06213 28-758): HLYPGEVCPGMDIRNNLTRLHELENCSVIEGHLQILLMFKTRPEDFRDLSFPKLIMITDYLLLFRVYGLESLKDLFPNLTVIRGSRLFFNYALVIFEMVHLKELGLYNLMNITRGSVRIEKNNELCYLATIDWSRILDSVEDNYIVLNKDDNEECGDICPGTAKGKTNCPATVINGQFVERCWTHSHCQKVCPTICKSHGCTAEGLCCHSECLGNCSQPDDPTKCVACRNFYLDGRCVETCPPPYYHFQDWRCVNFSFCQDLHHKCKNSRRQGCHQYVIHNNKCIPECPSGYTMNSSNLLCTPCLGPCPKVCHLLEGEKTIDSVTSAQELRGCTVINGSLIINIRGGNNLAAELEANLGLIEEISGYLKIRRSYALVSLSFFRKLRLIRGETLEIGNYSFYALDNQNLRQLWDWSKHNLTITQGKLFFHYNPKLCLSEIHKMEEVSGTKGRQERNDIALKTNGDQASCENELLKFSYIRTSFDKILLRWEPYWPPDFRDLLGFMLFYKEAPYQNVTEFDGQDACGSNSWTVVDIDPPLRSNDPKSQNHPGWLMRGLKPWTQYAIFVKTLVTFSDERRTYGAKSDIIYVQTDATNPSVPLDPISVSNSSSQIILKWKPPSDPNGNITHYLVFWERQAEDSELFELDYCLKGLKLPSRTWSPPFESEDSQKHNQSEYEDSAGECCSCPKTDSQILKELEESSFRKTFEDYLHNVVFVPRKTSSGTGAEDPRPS
insulin receptor (IR), sequence (P06213 763-1382): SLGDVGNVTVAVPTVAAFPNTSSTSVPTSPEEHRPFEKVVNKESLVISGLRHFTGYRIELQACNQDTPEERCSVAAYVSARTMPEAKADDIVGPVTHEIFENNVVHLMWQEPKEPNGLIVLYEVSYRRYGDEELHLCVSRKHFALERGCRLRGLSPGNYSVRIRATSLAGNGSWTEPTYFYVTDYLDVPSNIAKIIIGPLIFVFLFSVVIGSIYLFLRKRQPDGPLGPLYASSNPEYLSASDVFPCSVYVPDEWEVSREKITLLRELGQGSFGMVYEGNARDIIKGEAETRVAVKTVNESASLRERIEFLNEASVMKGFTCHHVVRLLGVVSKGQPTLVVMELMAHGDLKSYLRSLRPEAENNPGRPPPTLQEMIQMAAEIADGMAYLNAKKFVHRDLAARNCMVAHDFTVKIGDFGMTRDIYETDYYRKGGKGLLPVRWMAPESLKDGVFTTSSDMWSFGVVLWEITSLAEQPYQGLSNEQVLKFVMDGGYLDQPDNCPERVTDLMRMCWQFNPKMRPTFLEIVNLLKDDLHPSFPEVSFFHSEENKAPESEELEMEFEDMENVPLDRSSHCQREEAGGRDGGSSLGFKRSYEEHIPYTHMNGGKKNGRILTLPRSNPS

SMILES: Cc1cc(Nc2cc(C)[nH]n2)nc(N2CCC[C@H]2c2cc(-c3ccccn3)no2)n1 [AZ12253801]
- IC50 (insulin receptor (IR)): 19 nM
- IC50 [1]: 2.1 nM
